We go through 4 compounds from publication PMC5452347, “Serendipitous discovery of light-induced (In Situ) formation of an Azo-bridged dimeric sulfonated naphthol as a potent PTP1B inhibitor” (BMC Biochemistry, 2017).

Read-outs that look alike come from different tables or passages of the source. Where only a bound is given, the exact number is not on record here.

For data set [1], the target named is T1, DUSP5 PD(WT) (Homo sapiens, UniProt Q16690).
T1 construct: The DUSP5 phosphatase domain (DUSP5 PD(WT)) gene was synthesized by Blue Heron; made in house
T1 sequence (Q16690 178-319 limits assumed): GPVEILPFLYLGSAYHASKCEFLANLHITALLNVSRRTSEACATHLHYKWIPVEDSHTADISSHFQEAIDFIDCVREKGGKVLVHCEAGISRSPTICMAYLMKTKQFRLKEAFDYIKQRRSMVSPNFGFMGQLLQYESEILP
The experiment in a line: DUSP5 PD(WT) in vitro phosphatase assay with pNPP as substrate. It counts as biochemical. The procedure:
The DUSP5 phosphatase domain (DUSP5 PD(WT)) gene was synthesized by Blue Heron (Bothell, WA) and the protein expressed and purified as previously described. To measure the enzymatic activity of wild type phosphatase domain of DUSP5 {DUSP5 PD(WT)} and the inhibitory capacity of selected compounds, an in vitro phosphatase assay was utilized as previously described. Briefly, assays without and with inhibitors were performed in Greiner 96-well clear bottom plates with a total assay volume of 200 μL. The assay buffer contained 100 mM Tris, 100 mM NaCl, 5 mM MgCl2 • 6H2O and 1 mM dithiothreitol (DTT) at pH 7.5. p-nitrophenyl phosphate (pNPP, Sigma Aldrich) 5 mM was used as the substrate. DUSP5 PD(WT) dephosphorylates pNPP to yield p-nitrophenolate, which absorbs at 405 nm, having an extinction coefficient of 18,000 M^-1 cm^-1. The reaction was initiated by the addition of 4 μL of a 29 μM DUPSP5 PD(WT) enzyme stock and absorbance was monitored at 25 °C over time using a Spectramax M5 microplate reader (Molecular Devices). Blanks contained only buffer and pNPP. Negative controls (without inhibitor) contained assay buffer with pNPP and DUSP5 PD(WT).
Appropriate vehicles were added to the blank and negative control wells. A minimum of three replicate wells was run for each condition and at each inhibitor concentration. The replicate wells were averaged to give a single data point. The reaction was initiated upon addition of 4 μL of a 29 μM enzyme stock which was dispensed to each of the wells except the blanks utilizing a single channel pipette. The resulting DUSP5 PD(WT) concentration in the assay buffer was 0.58 μM. The plate was returned to the plate reader, shaken, and absorbance recorded at 25 °C every thirty seconds over a ten to sixty mins time course. In selected experiments the plate was returned to the plate reader following a 10 mins recording for one or two additional 10 mins absorbance recordings.
(§1) Initial rate values obtained from the plate reader were normalized to percent activity relative to the mean negative control rates. Graphpad Prism 6 software was utilized to calculate a non-linear regression (curve fit) using a variable slope model equation, constraining the top and bottom values to 100% activity and 0% activity, respectively, using the following equation:2 vi=Bottom+Top−Bottom/1+10^logIC50−x*HillSlope where v i is the initial rate.
To investigate the mechanism of DUSP5 PD(WT) inhibition by RR601, initial velocity inhibition profiles of RR601 were obtained in a 96-well plate format by measuring DUSP5 PD(WT) initial velocities in assay buffer containing of 1, 3, 9, 27 and 81 mM pNPP and 0, 3, 10, 30 and 75 μM RR601 at each pNPP concentration. Reactions were initiated by the addition of DUSP5 PD(WT) to a final concentration of 0.6 μM in each of the wells, excluding the blank. The data were fitted to a global competitive inhibition model (Graphpad Prism) using the following equation:3 vi=VmaxS/Km1+I/Ki+S where v is the initial velocity, V max the maximum velocity, K m the Michaelis constant, [S] the concentration of pNPP, [I] the concentration of RR601 and K i the inhibition constant.

For data set [2], the target named is T2, PTP1B (Homo sapiens, UniProt P18031).
T2 construct: purchased Creative Biomart
T2 sequence (P18031 1-435): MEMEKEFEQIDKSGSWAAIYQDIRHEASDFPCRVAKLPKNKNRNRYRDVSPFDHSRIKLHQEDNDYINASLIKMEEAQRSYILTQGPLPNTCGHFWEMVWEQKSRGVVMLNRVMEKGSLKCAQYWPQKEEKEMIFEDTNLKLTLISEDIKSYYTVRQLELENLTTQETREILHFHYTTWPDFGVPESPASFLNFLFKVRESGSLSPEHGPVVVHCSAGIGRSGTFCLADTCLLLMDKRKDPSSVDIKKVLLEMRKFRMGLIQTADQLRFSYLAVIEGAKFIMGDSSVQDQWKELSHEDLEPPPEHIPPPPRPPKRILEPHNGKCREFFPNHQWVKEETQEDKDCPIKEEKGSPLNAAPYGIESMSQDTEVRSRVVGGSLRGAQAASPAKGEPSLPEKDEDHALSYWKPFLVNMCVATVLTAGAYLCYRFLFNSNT
The experiment in a line: PTP1B in vitro phosphatase assay with pNPP. Format: biochemical. The procedure: To examine the capacity of RR601 to inhibit protein-tyrosine phosphatase 1B (PTP1B), (Creative Biomart), activity, an in vitro phosphatase assay was adapted from. Assays with and without inhibitor were performed in Corning 96-well clear bottom plates having a non-binding surface, with a total assay volume of 200 μL. The assay buffer contained 100 mM Tris, 100 mM NaCl, 1 mM EDTA at pH 7.0 and 2.2 mM pNPP as the substrate. […] The reaction was initiated upon addition of 4 μL of a 5.0 μM PTP1B stock, which was dispensed to each of the wells except the blanks using a single channel pipette. The resulting PTPB1 concentration in the assay buffer was 0.1 μM. […] Assays were performed in 96-well plates in a similar manner as reported above. The assay buffer contained 50 mM HEPES (pH 7.4), 2 mM EDTA, 3 mM DTT and 100 mM NaCl. An initial experiment was performed to determine the kinetic parameters of the SHP-2 enzyme. The reaction was initiated with the addition of 4 μL of a 0.35 μM stock SHP-2 enzyme into wells containing 0, 1, 3, 9, 27 and 81 μM pNPP. The SHP-2 assay concentration was 7 nM. Absorbance was recorded every 30 s over a ten minute assay period at a temperature of 25 °C (Additional file 1: Fig. S8). Initial velocities were fit to the Michaelis-Menten equation:1 v=VmaxS/Km+S where v is the initial velocity, V max the maximum velocity, K m the Michaelis constant, and [S] the pNPP concentration. […] Assay buffer contained 7.5 mM pNPP, roughly one-half the value of the Michaelis constant determined from the study above. Reactions were initiated with the addition of 4 μL SHP-2 enzyme, resulting in a final assay enzyme concentration of 7 nM.
as §1

For data set [3], the system named is SHP2. Also on record: method as in PMID 16717135. Conditions: read-out: IC50, SHP2 (reported); cited from earlier work.
Data set [4] has as its target T2, PTP1B. Also on record: method as in PMID 16717135. Conditions: read-out: IC50, PTP1B (reported); cited from earlier work.
Data set [5] in a line: Nephelometry (compound aggregation). Format: physicochemical. The procedure: Nephelometry was performed to determine the relative propensity of the inhibitor compounds to aggregate in solution, based on the light scattering properties of the molecular aggregates. Compound aggregation can lead to artifact inhibitory effects, thus confounding a study of mechanism of inhibition. Compounds were tested for aggregation in a 96-well plate format, final volume 200 μL, using the phosphatase activity assay buffer at pH 7.5 without added pNPP. […] Eight wells were used for blanks and for each compound concentration. Plates were analyzed at two separate gains to determine if the signals were at saturating levels. Progesterone was used as a positive control for compound aggregation. Data were collected using a BMG […] Plus, equipped with a 635 nm laser.

Data set [6] concerns the target T3, GST-DUSP5 (Homo sapiens, UniProt Q16690).
T3 construct: this assay was done with full-length protein (containing both domains), and using pERK as substrate; made in house
T3 sequence (Q16690 1-384): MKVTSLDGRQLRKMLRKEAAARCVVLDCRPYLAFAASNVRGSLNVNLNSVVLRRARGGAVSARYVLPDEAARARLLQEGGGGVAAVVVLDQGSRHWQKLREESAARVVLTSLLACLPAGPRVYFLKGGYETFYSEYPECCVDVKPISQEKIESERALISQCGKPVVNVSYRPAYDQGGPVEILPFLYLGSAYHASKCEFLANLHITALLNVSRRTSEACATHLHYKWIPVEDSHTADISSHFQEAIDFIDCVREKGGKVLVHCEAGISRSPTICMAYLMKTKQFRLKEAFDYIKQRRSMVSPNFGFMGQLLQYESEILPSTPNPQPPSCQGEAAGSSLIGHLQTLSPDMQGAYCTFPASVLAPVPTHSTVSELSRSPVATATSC
Put plainly: In vitro ERK dephosphorylation (pERK) western blot assay. Format: biochemical. The note with it: full-length GST-DUSP5, pERK as substrate; global fit of three experiments. Background: Immunoblotting shows a protein as a band on a membrane.

For data set [7], the target named is T4, SHP-2 (Homo sapiens, UniProt Q06124).
T4 construct: purchased Creative Biomart
T4 sequence (Q06124 1-593): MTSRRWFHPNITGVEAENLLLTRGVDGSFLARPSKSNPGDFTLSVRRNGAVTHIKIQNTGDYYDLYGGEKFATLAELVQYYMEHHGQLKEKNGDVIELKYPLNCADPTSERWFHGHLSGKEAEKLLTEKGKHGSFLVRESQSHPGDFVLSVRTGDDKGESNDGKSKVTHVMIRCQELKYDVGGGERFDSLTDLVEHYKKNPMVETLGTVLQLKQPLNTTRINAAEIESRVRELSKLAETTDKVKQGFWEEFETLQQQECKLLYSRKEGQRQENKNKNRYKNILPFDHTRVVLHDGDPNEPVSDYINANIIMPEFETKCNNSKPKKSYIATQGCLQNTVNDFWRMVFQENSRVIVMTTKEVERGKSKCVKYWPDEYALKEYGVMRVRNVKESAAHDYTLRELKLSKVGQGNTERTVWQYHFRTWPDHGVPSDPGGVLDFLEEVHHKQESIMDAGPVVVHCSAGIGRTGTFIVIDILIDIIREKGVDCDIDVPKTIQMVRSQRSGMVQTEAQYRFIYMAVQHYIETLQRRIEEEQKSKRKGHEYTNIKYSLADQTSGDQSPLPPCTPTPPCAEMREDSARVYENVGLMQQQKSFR
The experiment in a line: SHP-2 in vitro phosphatase assay with pNPP. Format: biochemical.
Description: as §1

As usually defined, the IC50 is the midpoint of a concentration-inhibition curve. `O=S(=O)(O)c1ccc2cc(N=Nc3cc(S(=O)(=O)O)c4cccnc4c3O)ccc2c1` [NSC-87877]: in data set [1] (pNPP, at 60 minutes, 0.1 to 300 μM), the “IC50, DUSP5 PD(WT)” value is reported as “did not inhibit”. Moreover, the half-inhibitory concentration (IC50) in data set [1] (pNPP, at 60 minutes, 0.1 to 300 μM, read-out: IC50, DUSP5 PD(WT)) was over 3000 µM; in data set [2] (pNPP, continuous monitoring over 60 min, read-out: IC50, PTP1B, after 50 mins of the reaction assay) it was 723 ± 302 µM; in data set [2] (pNPP, continuous monitoring over 60 min, read-out: IC50, PTP1B, after 60 mins of the reaction assay) it was 337 ± 130 µM; in data set [3], […]; in data set [4], 1.7 µM. The “Inhibition of PTP1B activity, initially” value in data set [2] (0.1 to 300 μM, start of assay) is “did not initially inhibit”.
For the compound `Nc1cccc2c(O)cc(S(=O)(=O)O)cc12` [RR535, 1-amino-5-naphthol-7-sulfonic acid], the “Compound aggregation over the concentration range tested (nephelometry)” value in data set [5] (1 to 300 μM, stocks stored in the dark or exposed to room light for seventeen days) is on record as “little or no measurable aggregation”.
As a reminder, the Ki is a measure of affinity in units of concentration, obtained from inhibition or displacement. In the case of `O=S(=O)(O)c1cc(O)c2cccc(/N=N/c3cccc4c(O)cc(S(=O)(=O)O)cc34)c2c1` [RR601], the IC50 in data set [1] (MP Biomedicals and RR535 stocks exposed to light 90 days, RR601 freshly prepared, pNPP, ± SE, read-out: DUSP5 PD(WT) inhibitor IC50, assay reaction period 15 – 25 min) is 36.5 ± 1.5 µM; in data set [1] (pNPP substrate, read-out: IC50, DUSP5 PD(WT) (summary value)), 36 µM; in data set [1] (read-out: DUSP5 PD(WT) inhibitor IC50, assay reaction period 0 – 10 min, MP Biomedicals and RR535 stocks exposed to light 90 days, RR601 freshly prepared, pNPP, ± SE), 36.9 ± 3.9 µM; in data set [1] (read-out: DUSP5 PD(WT) inhibitor IC50, assay reaction period 30 – 40 min, MP Biomedicals and RR535 stocks exposed to light 90 days, RR601 freshly prepared, pNPP, ± SE) it was 34.5 ± 1.4 µM; in data set [6] it was 4.8 µM; in data set [2] (pNPP 2.2 mM, 10 min recording, ± SE, read-out: IC50, PTP1B), 2.1 ± 0.2 µM. In data set [7] (pNPP 7.5 mM, 10 min reaction, ± SE), the IC50 came to 1.1 ± 0.1 µM. In addition, the “Vmax of DUSP5 PD(WT), Lineweaver-Burk” value was 0.54 µM/min in data set [1] (in the presence of 3 µM RR601), 0.61 µM/min in data set [1] (in the presence of 10 µM RR601), 0.62 µM/min in data set [1] (in the presence of 30 µM RR601) and 0.69 µM/min in data set [1] (in the presence of 75 µM RR601). Besides, the “Mechanism of DUSP5 PD(WT) inhibition” value in data set [1] (initial velocity studies varying pNPP and RR601) is “competitive inhibitor”. Also, in data set [2] (ratio of IC50 values), the “Selectivity for PTP1B versus DUSP5” value was 18 fold. The inhibitory constant (Ki) in data set [7] (1-30 mM pNPP, 0-3.0 µM RR601, ± SE, read-out: Ki, SHP-2, global competitive model fit) is 0.38 ± 0.05 µM. Also, in data set [7] (substrate concentrations less than 30 mM), the “Mechanism of SHP-2 inhibition” value is reported as “fit best to a competitive inhibition model”.
As to `CC(=O)[C@H]1CC[C@H]2[C@@H]3CCC4=CC(=O)CC[C@]4(C)[C@H]3CC[C@]12C` [progesterone, reference compound], the “Concentration at which aggregation begins (nephelometry)” value in data set [5] (phosphatase assay buffer pH 7.5 without pNPP) was “approximately 100 μM”.
